Laboratory results taken from ChEMBL document CHEMBL1201862, “PubChem BioAssay data set” (2004).
The source made the active and inactive calls.

Columns and labels:
INS1 = assay: INS-1E survival protection against cytokine death – cell-based, luminescence, retest, dose response (AID 449756); type: functional; settings: Rattus norvegicus;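 note: cell death triggered by IL-1 beta plus TNF-alpha plus IFN-gamma mixture; protective hits raise ATP signal compared with cytokine alone wells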
[1] = biological target: T1, Corticotropin-releasing factor receptor 2/Corticotropin-releasing factor-binding protein (Homo sapiens, UniProt P24387+Q13324); assay: activators of CRF receptor 2 with binding protein – uHTS hits, confirmation (AID 602473); type: functional; settings: read-out: EC50_Mean
T1 sequence (Q13324 whole entry): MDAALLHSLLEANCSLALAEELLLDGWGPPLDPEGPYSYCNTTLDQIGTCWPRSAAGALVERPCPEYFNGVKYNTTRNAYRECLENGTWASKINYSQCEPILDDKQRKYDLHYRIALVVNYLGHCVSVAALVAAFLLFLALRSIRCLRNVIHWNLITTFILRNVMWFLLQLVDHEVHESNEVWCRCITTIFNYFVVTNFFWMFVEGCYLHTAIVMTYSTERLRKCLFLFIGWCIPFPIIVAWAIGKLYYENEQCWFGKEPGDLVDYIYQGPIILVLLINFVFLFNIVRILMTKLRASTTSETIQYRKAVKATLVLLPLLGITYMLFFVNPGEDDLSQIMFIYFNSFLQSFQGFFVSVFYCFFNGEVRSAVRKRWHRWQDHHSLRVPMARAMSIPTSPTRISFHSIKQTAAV
T1 sequence (P24387 whole entry): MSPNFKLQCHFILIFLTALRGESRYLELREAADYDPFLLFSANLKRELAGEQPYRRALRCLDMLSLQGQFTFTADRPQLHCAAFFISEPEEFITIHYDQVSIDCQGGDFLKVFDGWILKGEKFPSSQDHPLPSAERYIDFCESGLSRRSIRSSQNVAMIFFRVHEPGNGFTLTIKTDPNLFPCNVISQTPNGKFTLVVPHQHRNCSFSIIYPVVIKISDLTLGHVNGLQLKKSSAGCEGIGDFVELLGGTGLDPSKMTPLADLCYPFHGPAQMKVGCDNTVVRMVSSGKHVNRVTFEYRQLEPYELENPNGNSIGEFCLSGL

Cytochrome P450 1A2 = biological target: T2, Cytochrome P450 1A2 (Homo sapiens, UniProt P05177);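 note: PubChem cytochrome P450 panel assay, CYP1A2 panel member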
T2 sequence (P05177 whole entry): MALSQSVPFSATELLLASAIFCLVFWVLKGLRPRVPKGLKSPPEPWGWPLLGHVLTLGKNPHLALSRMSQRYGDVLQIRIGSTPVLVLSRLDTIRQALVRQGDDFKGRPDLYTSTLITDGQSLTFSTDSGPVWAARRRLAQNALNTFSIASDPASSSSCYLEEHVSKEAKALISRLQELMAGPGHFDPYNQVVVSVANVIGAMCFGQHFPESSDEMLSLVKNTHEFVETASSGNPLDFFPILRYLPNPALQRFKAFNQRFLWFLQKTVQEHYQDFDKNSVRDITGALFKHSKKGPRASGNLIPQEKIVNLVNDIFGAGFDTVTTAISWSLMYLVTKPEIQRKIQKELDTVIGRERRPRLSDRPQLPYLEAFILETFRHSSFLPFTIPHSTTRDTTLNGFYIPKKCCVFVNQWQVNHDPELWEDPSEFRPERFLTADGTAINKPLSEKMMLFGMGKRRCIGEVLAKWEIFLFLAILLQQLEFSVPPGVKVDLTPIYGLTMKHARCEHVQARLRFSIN

Cytochrome P450 2C9 = Cytochrome P450 2C9 (Homo sapiens, UniProt P11712)
Sequence of Cytochrome P450 2C9 (P11712 whole entry): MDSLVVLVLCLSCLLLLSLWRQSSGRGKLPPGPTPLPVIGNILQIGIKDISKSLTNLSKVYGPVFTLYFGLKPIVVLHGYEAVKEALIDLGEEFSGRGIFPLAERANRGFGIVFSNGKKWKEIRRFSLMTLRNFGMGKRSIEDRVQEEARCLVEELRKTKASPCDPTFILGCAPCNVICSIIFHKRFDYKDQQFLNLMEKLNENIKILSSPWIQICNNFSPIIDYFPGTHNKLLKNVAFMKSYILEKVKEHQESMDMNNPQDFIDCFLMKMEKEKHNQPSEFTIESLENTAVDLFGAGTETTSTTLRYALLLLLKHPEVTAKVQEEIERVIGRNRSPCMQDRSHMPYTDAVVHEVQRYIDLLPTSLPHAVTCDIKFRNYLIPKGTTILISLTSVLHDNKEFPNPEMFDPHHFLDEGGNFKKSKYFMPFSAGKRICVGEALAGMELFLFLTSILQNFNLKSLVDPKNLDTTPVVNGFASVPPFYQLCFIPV

Cytochrome P450 3A4 = Cytochrome P450 3A4 (Homo sapiens, UniProt P08684);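 note: CYP3A4 tested as one member of a cytochrome P450 panel screen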
Sequence of Cytochrome P450 3A4 (P08684 whole entry): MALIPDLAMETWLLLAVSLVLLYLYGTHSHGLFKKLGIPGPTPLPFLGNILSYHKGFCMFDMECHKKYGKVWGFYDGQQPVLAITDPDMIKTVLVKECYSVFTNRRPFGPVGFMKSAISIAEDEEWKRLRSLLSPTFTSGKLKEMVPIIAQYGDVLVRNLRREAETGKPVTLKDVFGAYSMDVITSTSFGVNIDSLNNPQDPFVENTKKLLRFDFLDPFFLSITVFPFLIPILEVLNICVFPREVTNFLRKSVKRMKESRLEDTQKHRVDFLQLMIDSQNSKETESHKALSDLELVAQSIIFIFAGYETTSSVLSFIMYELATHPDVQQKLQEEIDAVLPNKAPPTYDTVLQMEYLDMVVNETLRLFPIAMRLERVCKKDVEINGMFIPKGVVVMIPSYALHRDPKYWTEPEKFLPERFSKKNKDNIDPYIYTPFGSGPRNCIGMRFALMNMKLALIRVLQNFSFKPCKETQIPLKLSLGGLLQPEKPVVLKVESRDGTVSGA

Cytochrome P450 2C19 = Cytochrome P450 2C19 (Homo sapiens, UniProt P33261); assay: Cytochrome panel assay with activity outcomes. Panel member name: p450-cyp2c19 Compounds with AC50 equal or less than 10 uM are considered active; type: functional; settings: read-out: AC50
Sequence of Cytochrome P450 2C19 (P33261 whole entry): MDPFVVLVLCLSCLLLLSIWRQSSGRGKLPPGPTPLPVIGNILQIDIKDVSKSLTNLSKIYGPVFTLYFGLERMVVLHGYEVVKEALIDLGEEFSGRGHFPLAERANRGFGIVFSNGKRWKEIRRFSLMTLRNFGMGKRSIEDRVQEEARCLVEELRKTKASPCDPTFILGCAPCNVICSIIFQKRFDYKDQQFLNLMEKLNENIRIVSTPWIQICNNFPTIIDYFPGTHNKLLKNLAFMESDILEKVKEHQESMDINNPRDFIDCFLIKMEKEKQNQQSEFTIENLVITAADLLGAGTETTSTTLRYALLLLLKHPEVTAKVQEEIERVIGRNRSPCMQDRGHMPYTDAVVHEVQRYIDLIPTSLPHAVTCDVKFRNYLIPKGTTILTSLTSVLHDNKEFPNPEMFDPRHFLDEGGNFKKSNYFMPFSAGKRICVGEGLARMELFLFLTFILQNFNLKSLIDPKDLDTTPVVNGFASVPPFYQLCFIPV

Protein RecA = biological target: T3, Protein RecA (Mycobacterium tuberculosis, UniProt P9WHJ3); assay: Fluorescence Cell-Free Homogeneous Dose Retest to Identify Inhibitors of RecA-Intein Splicing Activity. [Related pubchem assays (depositor defined):AID2097, AID2223, AID489010, AID492950]; type: functional
T3 sequence (P9WHJ3 whole entry): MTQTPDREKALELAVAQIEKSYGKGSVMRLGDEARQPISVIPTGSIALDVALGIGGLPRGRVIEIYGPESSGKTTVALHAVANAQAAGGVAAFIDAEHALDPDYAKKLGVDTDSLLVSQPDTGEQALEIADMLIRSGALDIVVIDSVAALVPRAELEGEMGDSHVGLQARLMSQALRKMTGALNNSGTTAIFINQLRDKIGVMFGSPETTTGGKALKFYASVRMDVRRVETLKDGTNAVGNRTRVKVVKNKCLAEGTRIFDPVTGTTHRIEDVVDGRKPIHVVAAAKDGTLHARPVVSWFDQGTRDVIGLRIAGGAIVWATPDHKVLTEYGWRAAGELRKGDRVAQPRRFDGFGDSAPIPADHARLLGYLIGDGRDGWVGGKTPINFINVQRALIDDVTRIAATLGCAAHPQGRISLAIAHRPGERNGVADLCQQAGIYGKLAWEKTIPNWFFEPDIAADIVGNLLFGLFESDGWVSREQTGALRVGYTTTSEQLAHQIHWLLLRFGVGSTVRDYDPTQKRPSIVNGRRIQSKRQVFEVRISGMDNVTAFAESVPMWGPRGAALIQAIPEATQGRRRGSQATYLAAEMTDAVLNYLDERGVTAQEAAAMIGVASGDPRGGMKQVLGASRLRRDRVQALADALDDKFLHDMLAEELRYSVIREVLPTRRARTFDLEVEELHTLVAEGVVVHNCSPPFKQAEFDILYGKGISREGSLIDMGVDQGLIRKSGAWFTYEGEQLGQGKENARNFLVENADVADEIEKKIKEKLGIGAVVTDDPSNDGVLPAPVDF

With `Cc1cccc(CNc2ccc(S(=O)(=O)N3CCCCC3)cc2)c1` the AC50 (INS1) was 27.2 µM (active).
`CCCn1c(=O)c(C(=O)NNC(=O)c2ccccc2Cl)c(O)c2ccccc21` was tested, and the EC50 [1] was 5.81 µM (active).
For `C/C(=N/NC(=O)CN(c1ccccc1)S(=O)(=O)c1ccccc1)c1ccccc1O`, the AC50 (INS1) was 2.01 µM (active).
In the case of `COc1ccc(Nc2cc(=O)n(C3CCCCC3)c(=O)[nH]2)c(OC)c1`, the AC50 (Cytochrome P450 1A2) is reported as 31.6 µM (inconclusive) and the AC50 (Cytochrome P450 2C9) is reported as 25.1 µM (inconclusive).
In the case of `Cc1ccc2[nH]c3nc(CCCn4ccnc4-c4ccccc4)nnc3c2c1`, the AC50 (Cytochrome P450 3A4) is reported as 3.16 µM (inconclusive) and the AC50 (Cytochrome P450 2C19) is reported as 2.51 µM (inconclusive).
`CC(C)(C)NC[C@@H](O)COc1ccccc1C1CCCC1` was tested, and the AC50 (Cytochrome P450 1A2) was 10 µM (inconclusive) and the AC50 (Cytochrome P450 2C9) was 12.6 µM (inconclusive).
`COc1ccc(Oc2ncc3nc(-c4ccc(Cl)cc4)c(=O)n(C[C@H]4CCCO4)c3n2)cc1` was tested, and the AC50 (Cytochrome P450 2C19) was 25.1 µM (inconclusive).
For `Cc1nnc(S)n1/N=C/c1ccccc1OCc1ccc(Cl)cc1`, the AC50 (Cytochrome P450 2C19) was 11.2 µM (inconclusive).
In the case of `CN(C)C(=O)c1ccc(-c2ccc3ncnc(NCCN4CCOCC4)c3c2)cc1`, the AC50 (Cytochrome P450 1A2) is reported as 25.1 µM (inconclusive) and the AC50 (Cytochrome P450 3A4) is reported as 15.8 µM (inconclusive).
With `COc1ccc(C(Cl)=C(c2ccc(OC)cc2)c2ccc(OC)cc2)cc1` [CHLOROTRIANISENE] the AC50 (Cytochrome P450 2C19) was 0.1 µM (inconclusive).
With `Cc1ccc(-n2ncc(N(C)C)c(Cl)c2=O)cc1` the AC50 (Cytochrome P450 1A2) was 14.1 µM (inconclusive) and the AC50 (Cytochrome P450 3A4) was 28.2 µM (inconclusive).
In the case of `COC(=O)[C@@]1(Cc2ccc(OC)cc2)[C@H]2c3cc(C(=O)N(C)C)n(Cc4ccc(C(F)(F)F)nc4)c3C[C@H]2CN1C(=O)c1ccccc1`, the AC50 (Cytochrome P450 2C9) is reported as 39.8 µM (inconclusive) and the AC50 (Cytochrome P450 2C19) is reported as 39.8 µM (inconclusive).
For `O=C(NCc1nc2ccccc2[nH]1)[C@H]1C[C@@H]1[C@H](NP(=O)(c1ccccc1)c1ccccc1)c1ccccc1`, the AC50 (Cytochrome P450 1A2) was 15.8 µM (inconclusive), the AC50 (Cytochrome P450 3A4) was 0.794 µM (inconclusive) and the AC50 (Cytochrome P450 2C19) was 39.8 µM (inconclusive).
In the case of `COc1ccc(NC(=N)SCc2ccccn2)cc1`, the EC50 [1] is reported as 15.6 µM (active).
With `Cc1ccc(N(Cc2cc(=O)[nH]c3ccccc23)C(=O)CCl)cc1` the EC50 (Protein RecA) was > 380 µM (inconclusive).
`O=C(Nc1ccc2ccccc2c1)c1onc2c1CCCC2` was tested, and the AC50 (Cytochrome P450 2C19) was 15.8 µM (inconclusive).
With `COc1ccc(CNS(=O)(=O)NCc2ccccc2)cc1OC` the EC50 [1] was > 53 µM (inactive).
`CCO/C=C1/C(=O)N(C)C(=O)c2cc(OC)ccc21` was tested, and the EC50 (Protein RecA) was > 380 µM (inactive).
For `CC(=O)Nc1ccc(/C=N/N2C(=O)NC(C)(c3ccc(OC(F)F)cc3)C2=O)cc1` (centres undefined), the EC50 [1] was 1.37 µM (active).
With `COCCCNC(=S)N/N=C/c1cccc(OC)c1O` the AC50 (INS1) was 2.44 µM (active).
In the case of `O=C(NCCO)c1cc2c(s1)CCC2`, the AC50 (Cytochrome P450 1A2) is reported as 14.1 µM (inconclusive), the AC50 (Cytochrome P450 2C9) is reported as 12.6 µM (inconclusive) and the AC50 (Cytochrome P450 2C19) is reported as 5.01 µM (inconclusive).
In the case of `Clc1ccc(-c2nnc(-c3ccc(Br)cc3)c(N3CCSCC3)n2)cc1`, the AC50 (Cytochrome P450 2C9) is reported as 10 µM (inconclusive) and the AC50 (Cytochrome P450 2C19) is reported as 11.2 µM (inconclusive).
`COc1ccc(Br)cc1CN(C)CC(=O)NCc1ccc(F)cc1` was tested, and the AC50 (INS1) was 114 µM (active).
